Here are results for 2 molecules from ChEMBL document CHEMBL1151334, “Arugosin F: a new antifungal metabolite from the coprophilous fungus Ascodesmis sphaerospora” (1998).

Format in all cases: functional
One test deals with Ascobolus. As to the kind of experiment: Antifungal activity against Ascobolus furfuraceus NRRL 6460 at 200 ug/disk by paper disk assay.
The next test has as its system Bacillus subtilis. As to the kind of experiment: Antibacterial activity against Bacillus subtilis ATCC 6051 at 200 ug/disk by standard disk assay. As to conditions: read-out: IZ.
Another test concerns Sordaria fimicola. Description: Antifungal activity against Sordaria fimicola NRRL 6459 at 200 ug/disk by paper disk assay.
In another test the test system is Staphylococcus aureus. As to the kind of experiment: Antibacterial activity against Staphylococcus aureus ATCC 29213 at 200 ug/disk by standard disk assay. To be noted: read-out: IZ.

`Cc1cc(CO)c2c(=O)c3c(O)cccc3oc2c1` returned an inhibition at 200 µg/disc in the test with Ascobolus of 20%. Also, the zone of inhibition at 200 µg/disc in the test on Bacillus subtilis amounted to 7 mm. For the same molecule, the Activity in the test with Sordaria fimicola stood at 33%.

In the case of `Cc1cc(O)c2c(c1)C(O)Oc1cccc(O)c1C2=O` (configuration not stated) [ARUGOSIN F], the inhibition at 200 µg/disc in the test with Ascobolus came to 100%. The figures for the zone of inhibition at 200 µg/disc with Staphylococcus aureus and in the test on Bacillus subtilis were 7 mm and 15 mm, respectively. In addition, the Activity in the test with Sordaria fimicola is recorded as 50%.
